Reference: ChEMBL document CHEMBL1201861, “Genomics of Drug Sensitity in Cancer screening data, Wellcome Trust Sanger Institute”

Experiments:
Assay in all cases: cells
Format in all cases: functional, cell-based
Conditions in all cases: Homo sapiens
COLO-792 = system: COLO-792
Description: SANGER: Inhibition of human COLO-792 cell growth in a cell viability assay.

Ca-Ski = system: Ca-Ski;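 also: cell viability assay measuring inhibition of Ca-Ski cell growth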
Description: SANGER: Inhibition of human Ca-Ski cell growth in a cell viability assay.

DK-MG = system: DK-MG;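 also: growth inhibition of DK-MG cells, read out with a cell viability assay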
Description: SANGER: Inhibition of human DK-MG cell growth in a cell viability assay.

Detroit 562 = system: Detroit 562;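 also: growth inhibition of human Detroit 562 cells, read out by a cell viability assay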
Description: SANGER: Inhibition of human Detroit562 cell growth in a cell viability assay.

EFM-19 = system: EFM-19;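 also: growth inhibition of human EFM-19 cells, measured in a cell viability assay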
Description: SANGER: Inhibition of human EFM-19 cell growth in a cell viability assay.

EFO-21 = system: EFO-21;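 also: growth inhibition of EFO-21 cells measured with a viability assay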
Description: SANGER: Inhibition of human EFO-21 cell growth in a cell viability assay.

HCC1954 = system: HCC1954;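 also: growth inhibition of human HCC1954 cells, read out with a cell viability assay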
Description: SANGER: Inhibition of human HCC1954 cell growth in a cell viability assay.

HCC2157 = system: HCC2157;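 also: growth inhibition of the cancer cell line, read out as cell viability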
Description: SANGER: Inhibition of human HCC2157 cell growth in a cell viability assay.

HCC70 = system: HCC70;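 also: cell viability assay measuring how strongly the compound suppresses proliferation of HCC70 cells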
Description: SANGER: Inhibition of human HCC70 cell growth in a cell viability assay.

HSC-2 = system: HSC-2;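 also: growth inhibition of human HSC-2 cells, read out by a cell viability assay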
Description: SANGER: Inhibition of human HSC-2 cell growth in a cell viability assay.

KP-4 = system: KP-4;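 also: human KP-4 cells, with growth inhibition read out through a cell viability assay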
Description: SANGER: Inhibition of human KP-4 cell growth in a cell viability assay.

KU-19-19 = system: KU-19-19
Description: SANGER: Inhibition of human KU-19-19 cell growth in a cell viability assay.

KYSE-180 = system: KYSE-180;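 also: growth inhibition of KYSE-180 cells, read out with a cell viability assay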
Description: SANGER: Inhibition of human KYSE-180 cell growth in a cell viability assay.

KYSE-70 cell line = system: KYSE-70 cell line;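 also: cell viability assay read-out, with IC50 expressing suppression of KYSE-70 cell growth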
Description: SANGER: Inhibition of human KYSE-70 cell growth in a cell viability assay.

ME-180 = system: ME-180;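 also: cell viability assay measuring growth inhibition of ME-180 cells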
Description: SANGER: Inhibition of human ME-180 cell growth in a cell viability assay.

MEL-HO = system: MEL-HO
Description: SANGER: Inhibition of human MEL-HO cell growth in a cell viability assay.

MIA PaCa-2 = system: MIA PaCa-2;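 also: growth inhibition of MIA PaCa-2 cells, read out with a cell viability assay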
Description: SANGER: Inhibition of human MIA-PaCa-2 cell growth in a cell viability assay.

MOLT-13 = system: MOLT-13;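 also: IC50 for suppression of MOLT-13 cell growth, read out with a cell viability assay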
Description: SANGER: Inhibition of human MOLT-13 cell growth in a cell viability assay.

NB17 = system: NB17;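 also: growth inhibition of NB17 cells, read out with a cell viability assay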
Description: SANGER: Inhibition of human NB17 cell growth in a cell viability assay.

NB7 = system: NB7;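 also: growth inhibition of NB7 cells, read out with a cell viability assay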
Description: SANGER: Inhibition of human NB7 cell growth in a cell viability assay.

NCI-H1563 = system: NCI-H1563;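 also: growth inhibition of human NCI-H1563 cells, read out with a cell viability assay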
Description: SANGER: Inhibition of human NCI-H1563 cell growth in a cell viability assay.

NCI-H2347 = system: NCI-H2347;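 also: growth inhibition of the cell line, read out with a cell viability assay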
Description: SANGER: Inhibition of human NCI-H2347 cell growth in a cell viability assay.

NCI-H441 = system: NCI-H441;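 also: growth inhibition of NCI-H441 cells, read out with a cell viability assay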
Description: SANGER: Inhibition of human NCI-H441 cell growth in a cell viability assay.

NCI-H522 = system: NCI-H522;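 also: cell viability assay measuring growth inhibition of human NCI-H522 cells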
Description: SANGER: Inhibition of human NCI-H522 cell growth in a cell viability assay.

NCI-H630 = system: NCI-H630;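 also: growth inhibition of NCI-H630 cells, read out with a cell viability assay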
Description: SANGER: Inhibition of human NCI-H630 cell growth in a cell viability assay.

NY = system: NY
Description: SANGER: Inhibition of human NY cell growth in a cell viability assay.

OVCAR-5 = system: OVCAR-5;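 also: growth inhibition of human OVCAR-5 cells, read out with a cell viability assay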
Description: SANGER: Inhibition of human OVCAR-5 cell growth in a cell viability assay.

PA-1 = system: PA-1;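 also: IC50 for suppression of PA-1 cell proliferation, determined with a cell viability read-out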
Description: SANGER: Inhibition of human PA-1 cell growth in a cell viability assay.

PANC-08-13 = system: PANC-08-13;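 also: cell growth inhibition, measured with a cell viability assay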
Description: SANGER: Inhibition of human PANC-08-13 cell growth in a cell viability assay.

Panc1005 = system: Panc1005;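 also: growth inhibition of human PANC-10-05 cells, measured by a cell viability assay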
Description: SANGER: Inhibition of human PANC-10-05 cell growth in a cell viability assay.

PC-14 = system: PC-14;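 also: cell viability assay measuring inhibition of PC-14 cell growth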
Description: SANGER: Inhibition of human PC-14 cell growth in a cell viability assay.

PC-3 = system: PC-3;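 also: cell viability assay measuring growth inhibition of PC-3 cells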
Description: SANGER: Inhibition of human PC-3 cell growth in a cell viability assay.

S-117 = system: S-117
Description: SANGER: Inhibition of human S-117 cell growth in a cell viability assay.

SCC-4 = system: SCC-4;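 also: growth inhibition of human SCC-4 cells, read out as cell viability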
Description: SANGER: Inhibition of human SCC-4 cell growth in a cell viability assay.

SKG-IIIa = system: SKG-IIIa;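 also: cell growth inhibition, read out with a cell viability assay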
Description: SANGER: Inhibition of human SKG-IIIa cell growth in a cell viability assay.

SNU-423 = system: SNU-423
Description: SANGER: Inhibition of human SNU-423 cell growth in a cell viability assay.

SW48 = system: SW48;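 also: growth inhibition of SW48 cells, read out with a cell viability assay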
Description: SANGER: Inhibition of human SW48 cell growth in a cell viability assay.

T47D = system: T47D;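 also: growth inhibition of human T47D cells, measured with a cell viability assay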
Description: SANGER: Inhibition of human T47D cell growth in a cell viability assay.

A253 cell line = system: A253 cell line;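 also: growth inhibition of A253 cells, read out with a cell viability assay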
Description: SANGER: Inhibition of human A253 cell growth in a cell viability assay.

A2780 = system: A2780;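 also: growth inhibition of A2780 cells, read out with a cell viability assay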
Description: SANGER: Inhibition of human A2780 cell growth in a cell viability assay.

A-375 = system: A-375;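 also: growth inhibition of A375 cells, read out with a cell viability assay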
Description: SANGER: Inhibition of human A375 cell growth in a cell viability assay.

A673 = system: A673;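 also: growth inhibition of human A673 cells, read out through a cell viability assay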
Description: SANGER: Inhibition of human A673 cell growth in a cell viability assay.

AN3-CA = system: AN3-CA;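 also: growth inhibition of human AN3-CA cells measured by a cell viability assay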
Description: SANGER: Inhibition of human AN3-CA cell growth in a cell viability assay.

AU565 = system: AU565;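 also: cell viability assay measuring growth inhibition of human AU565 cells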
Description: SANGER: Inhibition of human AU565 cell growth in a cell viability assay.

BHT-101 = system: BHT-101
Description: SANGER: Inhibition of human BHT-101 cell growth in a cell viability assay.

C3A = system: C3A;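 also: growth inhibition of C3A human cells, quantified with a cell viability readout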
Description: SANGER: Inhibition of human C3A cell growth in a cell viability assay.

YKG-1 = system: YKG-1;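 also: cell growth inhibition, read out with a viability assay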
Description: SANGER: Inhibition of human YKG-1 cell growth in a cell viability assay.

CHP-212 = system: CHP-212
Description: SANGER: Inhibition of human CHP-212 cell growth in a cell viability assay.

COLO-679 = system: COLO-679
Description: SANGER: Inhibition of human COLO-679 cell growth in a cell viability assay.

G-361 = system: G-361
NCI-H1703 = system: NCI-H1703;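 also: growth inhibition of NCI-H1703 cells, read out via a cell viability assay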
Description: SANGER: Inhibition of human NCI-H1703 cell growth in a cell viability assay.

A 172 = system: A 172;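 also: growth inhibition of A172 cells, measured with a cell viability readout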
Description: SANGER: Inhibition of human A172 cell growth in a cell viability assay.

Cn1c(=O)n(-c2ccc(C(C)(C)C#N)cc2)c2c3cc(-c4cnc5ccccc5c4)ccc3ncc21 [DACTOLISIB]
IC50 (COLO-792): 354 nM | IC50 (Ca-Ski): 156 nM | IC50 (DK-MG): 180 nM | IC50 (Detroit 562): 102 nM | IC50 (EFM-19): 67.5 nM | IC50 (EFO-21): 288 nM | IC50 (HCC1954): 513 nM | IC50 (HCC2157): 128 nM | IC50 (HCC70): 409 nM | IC50 (HSC-2): 95.9 nM | IC50 (KP-4): 7 nM | IC50 (KU-19-19): 31.1 nM | IC50 (KYSE-180): 46.2 nM | IC50 (KYSE-70 cell line): 152 nM | IC50 (ME-180): 22.4 nM | IC50 (MEL-HO): 24 nM | IC50 (MIA PaCa-2): 84.5 nM | IC50 (MOLT-13): 113 nM | IC50 (NB17): 722 nM | IC50 (NB7): 190 nM | IC50 (NCI-H1563): 105 nM | IC50 (NCI-H2347): 173 nM | IC50 (NCI-H441): 895 nM | IC50 (NCI-H522): 248 nM | IC50 (NCI-H630): 913 nM | IC50 (NY): 1170 nM | IC50 (OVCAR-5): 35.5 nM | IC50 (PA-1): 11.8 nM | IC50 (PANC-08-13): 58 nM | IC50 (Panc1005): 246 nM | IC50 (PC-14): 46.6 nM | IC50 (PC-3): 5.09 nM | IC50 (S-117): 76.3 nM | IC50 (SCC-4): 71.4 nM | IC50 (SKG-IIIa): 129 nM | IC50 (SNU-423): 68 nM | IC50 (SW48): 201 nM | IC50 (T47D): 67.9 nM | IC50 (A253 cell line): 82.6 nM | IC50 (A2780): 106 nM | IC50 (A-375): 23.9 nM | IC50 (A673): > 2000 nM | IC50 (AN3-CA): 5.56 nM | IC50 (AU565): 213 nM | IC50 (BHT-101): 30 nM | IC50 (C3A): > 2000 nM | IC50 (YKG-1): 53 nM | IC50 (CHP-212): 74.9 nM | IC50 (COLO-679): 122 nM

CC(=O)c1c(C)c2cnc(Nc3ccc(N4CCNCC4)cn3)nc2n(C2CCCC2)c1=O [PALBOCICLIB]
IC50 (COLO-792): > 4000 nM | IC50 (Ca-Ski): > 4000 nM | IC50 (DK-MG): > 4000 nM | IC50 (Detroit 562): > 4000 nM | IC50 (EFM-19): > 4000 nM | IC50 (EFO-21): > 4000 nM | IC50 (HCC1954): > 4000 nM | IC50 (HCC2157): > 4000 nM | IC50 (HCC70): > 4000 nM | IC50 (HSC-2): > 4000 nM | IC50 (KU-19-19): > 4000 nM | IC50 (KYSE-180): > 4000 nM | IC50 (KYSE-70 cell line): > 4000 nM | IC50 (ME-180): > 4000 nM | IC50 (MEL-HO): > 4000 nM | IC50 (MIA PaCa-2): 2360 nM | IC50 (MOLT-13): 1010 nM | IC50 (NB17): > 4000 nM | IC50 (NB7): 1990 nM | IC50 (NCI-H1563): > 4000 nM | IC50 (NCI-H2347): > 4000 nM | IC50 (NCI-H441): 1550 nM | IC50 (NCI-H522): > 4000 nM | IC50 (NCI-H630): > 4000 nM | IC50 (NY): > 4000 nM | IC50 (OVCAR-5): 900 nM | IC50 (PA-1): 510 nM | IC50 (PANC-08-13): > 4000 nM | IC50 (Panc1005): > 4000 nM | IC50 (PC-14): > 4000 nM | IC50 (PC-3): 1350 nM | IC50 (S-117): > 4000 nM | IC50 (SCC-4): > 4000 nM | IC50 (SKG-IIIa): > 4000 nM | IC50 (SNU-423): > 4000 nM | IC50 (SW48): > 4000 nM | IC50 (T47D): 1680 nM | IC50 (A253 cell line): > 4000 nM | IC50 (A2780): > 4000 nM | IC50 (A673): > 4000 nM | IC50 (AN3-CA): > 4000 nM | IC50 (AU565): > 4000 nM | IC50 (BHT-101): 198 nM | IC50 (C3A): > 4000 nM | IC50 (YKG-1): 1810 nM | IC50 (CHP-212): 594 nM | IC50 (COLO-679): > 4000 nM

CCCS(=O)(=O)Nc1ccc(F)c(C(=O)c2c[nH]c3ncc(Cl)cc23)c1F [PLX-4720]
IC50 (COLO-792): > 10000 nM | IC50 (Ca-Ski): > 10000 nM | IC50 (DK-MG): > 10000 nM | IC50 (Detroit 562): > 10000 nM | IC50 (EFM-19): > 10000 nM | IC50 (EFO-21): > 10000 nM | IC50 (G-361): 346 nM | IC50 (HCC1954): > 10000 nM | IC50 (HCC2157): > 10000 nM | IC50 (HCC70): > 10000 nM | IC50 (HSC-2): > 10000 nM | IC50 (KP-4): 2310 nM | IC50 (KU-19-19): > 10000 nM | IC50 (KYSE-180): > 10000 nM | IC50 (KYSE-70 cell line): > 10000 nM | IC50 (ME-180): > 10000 nM | IC50 (MEL-HO): 412 nM | IC50 (MIA PaCa-2): > 10000 nM | IC50 (MOLT-13): > 10000 nM | IC50 (NB17): > 10000 nM | IC50 (NB7): 6210 nM | IC50 (NCI-H1563): > 10000 nM | IC50 (NCI-H1703): > 10000 nM | IC50 (NCI-H2347): > 10000 nM | IC50 (NCI-H441): > 10000 nM | IC50 (NCI-H522): > 10000 nM | IC50 (NCI-H630): > 10000 nM | IC50 (NY): > 10000 nM | IC50 (OVCAR-5): > 10000 nM | IC50 (PA-1): 2730 nM | IC50 (PANC-08-13): > 10000 nM | IC50 (Panc1005): > 10000 nM | IC50 (PC-14): > 10000 nM | IC50 (PC-3): > 10000 nM | IC50 (S-117): > 10000 nM | IC50 (SCC-4): > 10000 nM | IC50 (SKG-IIIa): > 10000 nM | IC50 (SNU-423): > 10000 nM | IC50 (SW48): > 10000 nM | IC50 (T47D): > 10000 nM | IC50 (A 172): > 10000 nM | IC50 (A253 cell line): > 10000 nM | IC50 (A2780): > 10000 nM | IC50 (A-375): 674 nM | IC50 (A673): > 10000 nM | IC50 (AN3-CA): > 10000 nM | IC50 (AU565): > 10000 nM | IC50 (BHT-101): 707 nM | IC50 (C3A): > 10000 nM | IC50 (YKG-1): > 10000 nM | IC50 (CHP-212): > 10000 nM | IC50 (COLO-679): 1100 nM
